Laboratory results: the supplement of paper PMC11061612

Key:
Carboplatin = compound: C1CC(C1)(C(=O)[O-])C(=O)[O-].N.N.[Pt+2] [Carboplatin]; conditions: max 10 µM
Outline: (§1)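 Plates with 1536 wells received cancer cell lines in 7.5 μl of DMEM/F12 or RPMI containing 10% FBS. After 24 hours at 37°C and 5% CO2, cells were dosed for 72 hours with final DMSO typically 0.2%, and viability was read by CellTiter-Glo 2.0 luminescence scaled between blank-well and DMSO-well means. The single-agent IC50 was taken from a logistic fit of the dose responses made with a non-linear mixed effects model, that logistic curve having two parameters.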

AZD5363 = compound: C1CN(CCC1(C(=O)N[C@@H](CCO)C2=CC=C(C=C2)Cl)N)C3=NC=NC4=C3C=CN4 [AZD5363]; conditions: max 10 µM
Outline: as §1

AZD1775 = compound: C=CCn1c(=O)c2cnc(Nc3ccc(N4CCN(C)CC4)cc3)nc2n1-c1cccc(C(C)(C)O)n1 [AZD1775]; conditions: max 3 µM
Outline: as §1

Trametinib = compound: CC(=O)Nc1cccc(-n2c(=O)n(C3CC3)c(=O)c3c(Nc4ccc(I)cc4F)n(C)c(=O)c(C)c32)c1 [Trametinib]; conditions: max 1 µM
Outline: as §1

Paclitaxel = compound: CC(=O)O[C@H]1C(=O)[C@@]2(C)[C@H]([C@H](OC(=O)c3ccccc3)[C@]3(O)C[C@H](OC(=O)[C@H](O)[C@@H](NC(=O)c4ccccc4)c4ccccc4)C(C)=C1C3(C)C)[C@]1(OC(C)=O)CO[C@@H]1C[C@@H]2O [Paclitaxel]; conditions: max 3 µM
Outline: as §1

Palbociclib = compound: CC(=O)c1c(C)c2cnc(Nc3ccc(N4CCNCC4)cn3)nc2n(C2CCCC2)c1=O [Palbociclib]; conditions: max 10 µM
Outline: as §1

AZD1390 = compound: CC(C)n1c(=O)n(C)c2cnc3cc(F)c(-c4ccc(OCCCN5CCCCC5)nc4)cc3c21 [AZD1390]; conditions: max 0.3 µM
Outline: as §1

Venetoclax = compound: CC1(C)CCC(CN2CCN(c3ccc(C(=O)NS(=O)(=O)c4ccc(NCC5CCOCC5)c([N+](=O)[O-])c4)c(Oc4cnc5[nH]ccc5c4)c3)CC2)=C(c2ccc(Cl)cc2)C1 [Venetoclax]; conditions: max 1 µM
Outline: as §1

Dasatinib = compound: CC1=C(C(=CC=C1)Cl)NC(=O)C2=CN=C(S2)NC3=CC(=NC(=N3)C)N4CCN(CC4)CCO [Dasatinib]; conditions: max 2 µM
Outline: as §1

SG3199 = compound: CC1=CN2[C@@H](C1)C=NC3=CC(=C(C=C3C2=O)OC)OCCCCCOC4=C(C=C5C(=C4)N=C[C@@H]6CC(=CN6C5=O)C)OC [SG3199]; conditions: max 0.001 µM
Outline: as §1

AZD2811 = compound: CCN(CCO)CCCOc1ccc2c(Nc3cc(CC(=O)Nc4cccc(F)c4)[nH]n3)ncnc2c1 [AZD2811]; conditions: max 1 µM
Outline: as §1

SN-38 = compound: CCc1c2c(nc3ccc(O)cc13)-c1cc3c(c(=O)n1C2)COC(=O)[C@]3(O)CC [SN-38]; conditions: max 0.3 µM
Outline: as §1

AZD0156 = compound: CN(C)CCCOc1ccc(-c2ccc3ncc4c(c3c2)n(C2CCOCC2)c(=O)n4C)cn1 [AZD0156]; conditions: max 3 µM
Outline: as §1

AZD4320 = compound: CN(CC[C@H](CSC1=CC=CC=C1)NC2=C(C=C(C=C2)S(=O)(=O)NC(=O)C3=CC=C(C=C3)N4CCC(CC4)[C@H](C5=CC=CC=C5C6=CC=C(C=C6)Cl)O)S(=O)(=O)C(F)(F)F)CCO [AZD4320]; conditions: max 1 µM
Outline: as §1

Alisertib = compound: COc1cc(Nc2ncc3c(n2)-c2ccc(Cl)cc2C(c2c(F)cccc2OC)=NC3)ccc1C(=O)O [Alisertib]; conditions: max 10 µM
Outline: as §1

Etoposide = compound: COc1cc([C@@H]2c3cc4c(cc3[C@@H](O[C@@H]3O[C@@H]5CO[C@@H](C)O[C@H]5[C@H](O)[C@H]3O)[C@H]3COC(=O)[C@H]23)OCO4)cc(OC)c1O [Etoposide]; conditions: max 10 µM
Outline: as §1

Gefitinib = compound: COc1cc2ncnc(Nc3ccc(F)c(Cl)c3)c2cc1OCCCN1CCOCC1 [Gefitinib]; conditions: max 10 µM
Outline: as §1

Prexasertib = compound: COc1cccc(OCCCN)c1-c1cc(Nc2cnc(C#N)cn2)n[nH]1 [Prexasertib]; conditions: max 1 µM
Outline: as §1

Doxorubicin = compound: COc1cccc2c1C(=O)c1c(O)c3c(c(O)c1C2=O)C[C@@](O)(C(=O)CO)C[C@@H]3O[C@H]1C[C@H](N)[C@H](O)[C@H](C)O1 [Doxorubicin]; conditions: max 1 µM
Outline: as §1

AZD5153 = compound: COc1nnc2ccc(N3CCC(c4ccc(OCCN5CCN(C)C(=O)[C@H]5C)cc4)CC3)nn12 [AZD5153]; conditions: max 1 µM
Outline: as §1

Lapatinib = compound: CS(=O)(=O)CCNCc1ccc(-c2ccc3ncnc(Nc4ccc(OCc5cccc(F)c5)c(Cl)c4)c3c2)o1 [Lapatinib]; conditions: max 10 µM
Outline: as §1

AZD8186 = compound: C[C@@H](Nc1cc(F)cc(F)c1)c1cc(C(=O)N(C)C)cc2c(=O)cc(N3CCOCC3)oc12 [AZD8186]
Outline: as §1

Crizotinib = compound: C[C@@H](Oc1cc(-c2cnn(C3CCNCC3)c2)cnc1N)c1c(Cl)ccc(F)c1Cl [Crizotinib]; conditions: max 10 µM
Outline: as §1

Savolitinib = compound: C[C@@H](c1ccc2nccn2c1)n1nnc2ncc(-c3cnn(C)c3)nc21 [Savolitinib]; conditions: max 1 µM
Outline: as §1

AZD6738 = compound: C[C@@H]1COCCN1C2=NC(=NC(=C2)C3(CC3)[S@](=N)(=O)C)C4=C5C=CNC5=NC=C4 [AZD6738]; conditions: max 10 µM
Outline: as §1

AZD5991 = compound: Cc1c2c(nn1C)CSCc1cc(n(C)n1)CSc1cc(c3ccccc3c1)OCCCc1c(C(=O)O)n(C)c3c-2c(Cl)ccc13 [AZD5991]; conditions: max 1 µM
Outline: as §1

AZD7648 = compound: Cc1cc2ncnn2cc1Nc1ncc2c(n1)n(C1CCOCC1)c(=O)n2C [AZD7648]; conditions: max 10 µM
Outline: as §1

Taselisib = compound: Cc1nc(-c2cn3c(n2)-c2ccc(-c4cnn(C(C)(C)C(N)=O)c4)cc2OCC3)n(C(C)C)n1 [Taselisib]; conditions: max 10 µM
Outline: as §1

Selumetinib = compound: Cn1cnc2c(F)c(Nc3ccc(Br)cc3Cl)c(C(=O)NOCCO)cc21 [Selumetinib]; conditions: max 10 µM
Outline: as §1

SRA737 = compound: N#Cc1cnc(Nc2cc(NC[C@H]3CNCCO3)c(C(F)(F)F)cn2)cn1 [SRA737]; conditions: max 10 µM
Outline: as §1

MK-2206 = compound: NC1(c2ccc(-c3nc4ccn5c(=O)[nH]nc5c4cc3-c3ccccc3)cc2)CCC1 [MK-2206]; conditions: max 10 µM
Outline: as §1

Gemcitabine = compound: Nc1ccn([C@@H]2O[C@H](CO)[C@@H](O)C2(F)F)c(=O)n1 [Gemcitabine]; conditions: max 0.3 µM
Outline: as §1

[1] = compound: O=C(Nc1ccc2[nH]nc(-c3ccncc3)c2c1)[C@@H]1CCN(CC(=O)N2CCN(c3ccc(-c4ncccn4)cc3)CC2)C1; conditions: max 5 µM
Outline: as §1

Olaparib = compound: O=C(c1cc(Cc2n[nH]c(=O)c3ccccc23)ccc1F)N1CCN(C(=O)C2CC2)CC1 [Olaparib]; conditions: max 10 µM
Outline: as §1

5-Fluorouracil = compound: O=c1[nH]cc(F)c(=O)[nH]1 [5-Fluorouracil]; conditions: max 20 µM
Outline: as §1

Capivasertib = compound: C1CN(CCC1(C(=O)N[C@@H](CCO)C2=CC=C(C=C2)Cl)N)C3=NC=NC4=C3C=CN4 [Capivasertib]; conditions: max 10 µM
Outline: as §1

Cell Line	IC50, cell viability 72 h (Carboplatin)	IC50, cell viability 72 h (AZD5363)	IC50, cell viability 72 h (AZD1775)	IC50, cell viability 72 h (Trametinib)	IC50, cell viability 72 h (Paclitaxel)	IC50, cell viability 72 h (Palbociclib)	IC50, cell viability 72 h (AZD1390)	IC50, cell viability 72 h (Venetoclax)	IC50, cell viability 72 h (Dasatinib)	IC50, cell viability 72 h (SG3199)	IC50, cell viability 72 h (AZD2811)	IC50, cell viability 72 h (SN-38)	IC50, cell viability 72 h (AZD0156)	IC50, cell viability 72 h (AZD4320)	IC50, cell viability 72 h (Alisertib)	IC50, cell viability 72 h (Etoposide)	IC50, cell viability 72 h (Gefitinib)	IC50, cell viability 72 h (Prexasertib)	IC50, cell viability 72 h (Doxorubicin)	IC50, cell viability 72 h (AZD5153)	IC50, cell viability 72 h (Lapatinib)	IC50, cell viability 72 h (AZD8186; max 10 µM)	IC50, cell viability 72 h (Crizotinib)	IC50, cell viability 72 h (Savolitinib)	IC50, cell viability 72 h (AZD6738)	IC50, cell viability 72 h (AZD5991)	IC50, cell viability 72 h (AZD7648)	IC50, cell viability 72 h (Taselisib)	IC50, cell viability 72 h (Selumetinib)	IC50, cell viability 72 h (SRA737)	IC50, cell viability 72 h (MK-2206)	IC50, cell viability 72 h (Gemcitabine)	IC50, cell viability 72 h [1]	IC50, cell viability 72 h (Olaparib)	IC50, cell viability 72 h (5-Fluorouracil)	IC50, cell viability 72 h (Capivasertib)	IC50, cell viability 72 h (AZD8186; max 3 µM)
A375 (Melanoma)	> 10 µM	> 10 µM	813 nM	12.6 nM	42 nM	> 10 µM	> 300 nM	> 1000 nM	> 2000 nM	> 1 nM	> 1000 nM	7.4 nM	> 3000 nM	> 1000 nM	8.15 µM	2610 nM	> 10 µM	210 nM	265 nM	> 1000 nM	> 10 µM	> 10 µM	> 10 µM	> 1000 nM	9.24 µM	> 1000 nM	> 10 µM	> 10 µM	0.693 µM	> 10 µM	> 10 µM	9.74 nM	538 nM	> 10 µM	> 20 µM		
JJN-3 (Plasma Cell Myeloma)			654 nM	> 1000 nM		> 10 µM	> 300 nM	> 1000 nM	> 2000 nM	> 1 nM	> 1000 nM	163 nM	> 3000 nM	866 nM	> 10 µM		> 10 µM	27.4 nM	994 nM	47.6 nM	> 10 µM		> 10 µM	> 1000 nM	5.74 µM	49.5 nM	> 10 µM	> 10 µM	> 10 µM		> 10 µM			> 10 µM		> 10 µM	> 3 µM
NCI-H835 (Other Solid Carcinomas)	> 10 µM	> 10 µM	1100 nM	> 1000 nM	2770 nM	> 10 µM	> 300 nM	> 1000 nM	> 2000 nM	> 1 nM	> 1000 nM	> 300 nM	> 3000 nM	218 nM		> 10000 nM	> 10 µM	> 1000 nM	> 1000 nM	> 1000 nM	> 10 µM	> 10 µM	9.99 µM	> 1000 nM	> 10 µM	> 1000 nM	> 10 µM	5.25 µM	> 10 µM	> 10 µM	> 10 µM	> 300 nM	> 5000 nM	> 10 µM	> 20 µM		
